These are literature values, as cited in patent US8313936B2, “Nucleic acids and polypeptides involved in the production of cryptophycin” (priority 2006, dated 2012).

The conditions of the data set: assay not specified; U.S. Publication No. 20020065261.

Take `COc1ccc(C[C@H]2NC(=O)/C=C/C[C@@H]([C@H](C)[C@H]3O[C@@H]3c3ccccc3)OC(=O)[C@H](CC(C)C)OC(=O)[C@H](C)CNC2=O)cc1Cl` [Cryptophycin 1]: the “activity relative to other cryptophycins” value is listed as “the most active natural compound”.
